Test results taken from ChEMBL document CHEMBL3045550, “Design, synthesis and biological activities of new strobilurin derivatives containing substituted pyrazoles” (2010).

What was measured:
Format in all cases: functional
[1] = system: Blumeria graminis f. sp. tritici; test: Antifungal activity against Blumeria graminis f. sp. tritici infected seven-day-old wheat seedlings assessed as disease control at 1.56 mg/l after 7 days relative to control
[2] = system: Blumeria graminis f. sp. tritici; test: Antifungal activity against Blumeria graminis f. sp. tritici infected seven-day-old wheat seedlings assessed as disease control at 12.5 mg/l after 7 days relative to control
[3] = system: Botrytis cinerea; test: Antifungal activity against Botryotinia fuckeliana infected cucumber leaves assessed as disease control at 400 mg/l after 4 days relative to control
[4] = system: Pseudoperonospora cubensis; test: Antifungal activity against Pseudoperonospora cubensis infected cucumber leaves assessed as disease control at 25 mg/l after 5 days relative to control
[5] = system: Pseudoperonospora cubensis; test: Antifungal activity against Pseudoperonospora cubensis infected cucumber leaves assessed as disease control at 400 mg/l after 5 days relative to control
[6] = system: Pseudoperonospora cubensis; test: Antifungal activity against Pseudoperonospora cubensis infected cucumber leaves assessed as disease control at 3.12 mg/l after 5 days relative to control
[7] = system: Tetranychus cinnabarinus; test: Acaricidal activity against Tetranychus cinnabarinus (carmine spider mite) in kidney bean plants assessed as mortality at 600 mg/l after 48 hr relative to control
[8] = system: Pseudoperonospora cubensis; test: Antifungal activity against Pseudoperonospora cubensis infected cucumber leaves assessed as disease control at 6.25 mg/l after 5 days relative to control
[9] = system: Tetranychus cinnabarinus; test: Acaricidal activity against Tetranychus cinnabarinus (carmine spider mite) in kidney bean plants assessed as mortality at 150 mg/l after 48 hr relative to control
[10] = system: Pyricularia oryzae; test: Antifungal activity against Magnaporthe oryzae infected 12 day old rice plant assessed as disease control at 400 mg/l after 6 days relative to control
[11] = system: Tetranychus cinnabarinus; test: Acaricidal activity against Tetranychus cinnabarinus (carmine spider mite) in kidney bean plants assessed as mortality at 38 mg/l after 48 hr relative to control
[12] = system: Blumeria graminis f. sp. tritici; test: Antifungal activity against Blumeria graminis f. sp. tritici infected seven-day-old wheat seedlings assessed as disease control at 400 mg/l after 7 days relative to control

Row | SMILES | Activity [1] [%] | Activity [2] [%] | Activity [3] [%] | Activity [4] [%] | Activity [5] [%] | Activity [6] [%] | Activity [7] [%] | Activity [8] [%] | Activity [9] [%] | Activity [10] [%] | Activity [11] [%] | Activity [12] [%]
1 | CO/C=C(/C(=O)OC)c1ccccc1COc1c(C)c(-c2cc(C)ccc2C)nn1C [METHYL 2-(2-((3-(2,5-DIMETHYLPHENYL)-1,4-DIMETHYL-1H-PYRAZOL-5-YLOXY)METHYL)PHENYL)-3-METHOXYACRYLATE] | 0 | 50 | 50 | 80 | 100 | 0 | 100 | 0 | 20 | 100 | 0 | 100
2 | CO/C=C(/C(=O)OC)c1ccccc1COc1c(C)c(-c2ccc(C)c(C)c2)nn1C [METHYL 2-(2-((3-(3,4-DIMETHYLPHENYL)-1,4-DIMETHYL-1H-PYRAZOL-5-YLOXY)METHYL)PHENYL)-3-METHOXYACRYLATE] | 70 | 100 | 50 | 100 | 100 | 30 | 100 | 85 | 80 | 100 | 0 | 100
3 | CO/C=C(/C(=O)OC)c1ccccc1COc1cc(-c2ccc(C)c(C)c2)nn1C [METHYL 2-(2-((3-(3,4-DIMETHYLPHENYL)-1-METHYL-1H-PYRAZOL-5-YLOXY)METHYL)PHENYL)-3-METHOXYACRYLATE] | 80 | 100 | 50 | 100 | 100 | 35 | 100 | 40 | 0 | 100 | 0 | 100
4 | CO/C=C(/C(=O)OC)c1ccccc1COc1cc(-c2ccc(Br)cc2)nn1C [METHYL 2-(2-((3-(4-BROMOPHENYL)-1-METHYL-1H-PYRAZOL-5-YLOXY)METHYL)PHENYL)-3-METHOXYACRYLATE] | 10 | 100 | 0 | 100 | 100 | 60 | 100 | 85 | 71 | 70 | 57 | 100
5 | CCOc1ccc(-c2nn(C)c(OCc3ccccc3/C(=C\OC)C(=O)OC)c2C)cc1 [METHYL 2-(2-((3-(4-ETHOXYPHENYL)-1,4-DIMETHYL-1H-PYRAZOL-5-YLOXY)METHYL)PHENYL)-3-METHOXYACRYLATE] | 65 | 100 | 100 | 50 | 100 | 0 | 100 | 0 | 35 | 100 | 20 | 100
6 | CCc1ccc(-c2nn(C)c(OCc3ccccc3/C(=C\OC)C(=O)OC)c2C)cc1 [METHYL 2-(2-((3-(4-ETHYLPHENYL)-1,4-DIMETHYL-1H-PYRAZOL-5-YLOXY)METHYL)PHENYL)-3-METHOXYACRYLATE] | 0 | 100 | 0 | 100 | 100 | 20 | 100 | 60 | 100 | 0 | 30 | 100
7 | CO/C=C(/C(=O)OC)c1ccccc1COc1c(C)c(-c2ccc(C(C)(C)C)cc2)nn1C [METHYL 2-(2-((3-(4-TERT-BUTYLPHENYL)-1,4-DIMETHYL-1H-PYRAZOL-5-YLOXY)METHYL)PHENYL)-3-METHOXYACRYLATE] | 0 | 10 | 50 | 20 | 95 | 0 | 100 | 0 | 0 | 50 | 0 | 90
